Measured values published in ChEMBL document CHEMBL4340506, “Inhibition of a viral prolyl hydroxylase” (Bioorg Med Chem, 2019).
Calls of active or inactive are those of the source. No cut-off for these calls is given here. Where a SMILES comes first, the peptide text is derived from it. [ ]: non-standard residue; d: D form. Hyp = O=C(O)[C@@H]1C[C@@H](O)CN1

biological target: T1, Prolyl 4-hydroxylase (Paramecium bursaria Chlorella virus 1, UniProt Q84406); assay: Inhibition of N-terminal His6-tagged recombinant Paramecium bursaria chlorella virus 1 CPH expressed in Escherichia coli Rosetta 2 (DE3) cells pre-incubated for 5 mins before 2OG as substrate and Fe2 as co-factor addition in presence of L-ascorbate and measured after 5 mins MALDI TOF MS analysis
T1 sequence (Q84406 whole entry): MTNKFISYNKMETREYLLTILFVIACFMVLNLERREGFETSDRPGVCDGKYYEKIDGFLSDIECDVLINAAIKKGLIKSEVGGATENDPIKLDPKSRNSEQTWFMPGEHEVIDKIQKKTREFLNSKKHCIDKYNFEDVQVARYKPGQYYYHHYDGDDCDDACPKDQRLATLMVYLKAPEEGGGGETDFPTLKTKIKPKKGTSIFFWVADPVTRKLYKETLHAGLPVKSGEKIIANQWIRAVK

| Compound | IC50 [µM] | Ki [nM] |
| --- | --- | --- |
| O=C(O)c1ccc(O)c2ncccc12 | 47.2 | – |
| O=C(O)C[C@H](O)C(=O)O | > 1000 | – |
| O=C(O)CC[C@@H](O)C(=O)O | > 500 | – |
| O=C(O)CC[C@H](O)C(=O)O | > 500 | – |
| CN(C)NC(=O)CCC(=O)O | > 100 | – |
| O=C(O)c1ccnc(C(=O)O)c1 | 5.3 | 3280 |
| O=C(O)CCNc1cc(N2CCc3ccccc3CC2)nc(-c2ccccn2)n1 | 15.9 | – |
| O=C(O)/C=C(/CC(=O)O)C(=O)O | > 1000 | – |
| O=C(O)CNC(=O)c1ncc(-c2cccc(Cl)c2)cc1O | < 1 | 280 |
| Cc1ccsc1C(NC(=O)c1ccccc1)c1cc(Cl)c2cccnc2c1O (centres undefined) | > 100 | – |
| CCCCCCCCOC(=O)c1ccc(O)c2ncccc12 | > 100 | – |
| O=C(O)CNC(=O)c1nc(Cl)c2ccccc2c1O | 4.5 | 710 |
| O=C(O)c1c[nH]c2c(ccc3cccnc32)c1=O | 15.7 | – |
| O=C(O)CC(O)(CC(=O)O)C(=O)O [CITRIC ACID] | 213 | – |
| O=C(O)/C=C/C(=O)O [FUMARIC ACID] | > 1000 | – |
| N[C@@H](CCC(=O)O)C(=O)O [GLUTAMIC ACID] | > 1000 | – |
| O=C(O)C[C@H](C(=O)O)[C@@H](O)C(=O)O [ISOCITRIC ACID] | 284 | – |
| O=C(O)CNC(=O)C(=O)O [N-OXALYLGLYCINE] | 21.2 | 48700 |
| O=C(O)CC(=O)C(=O)O [OXALOACETATE] | > 1000 | – |
| CC(=O)C(=O)O [PYRUVATE] | > 1000 | – |
| O=C(O)CCC(=O)O [SUCCINIC ACID] | > 1000 | – |

biological target: T2, Prolyl 4-hydroxylase (Paramecium bursaria Chlorella virus 1) (UniProt Q84406); assay: Substrate activity at N-terminal His6-tagged recombinant Paramecium bursaria chlorella virus 1 CPH expressed in Escherichia coli Rosetta 2 (DE3) cells assessed as substrate hydroxylation at 100 uM incubated for 16 hrs in presence of 2OG by MALDI TOF MS analysis
T2 sequence (whole entry): T1 sequence (Q84406 whole entry)

| Compound | Activity |
| --- | --- |
| C[C@H](NC(=O)[C@H](CCCCN)NC(=O)[C@@H]1C[C@@H](O)CN1C(=O)[C@H](C)NC(=O)[C@@H]1CCCN1)C(=O)N[C@@H](C)C(=O)N1CCC[C@H]1C(=O)N[C@@H](CCCCN)C(=O)O (H-PA[Hyp]KAAPK-OH) | inactive |
| C[C@H](NC(=O)[C@H](CS)NC(=O)[C@H](CCCCN)NC(=O)[C@@H]1C[C@@H](O)CN1C(=O)[C@H](C)NC(=O)[C@@H]1CCCN1)C(=O)N1CCC[C@H]1C(=O)N[C@@H](CCCCN)C(=O)O (H-PA[Hyp]KCAPK-OH) | inactive |
| C[C@H](NC(=O)[C@H](CC(=O)O)NC(=O)[C@H](CCCCN)NC(=O)[C@@H]1C[C@@H](O)CN1C(=O)[C@H](C)NC(=O)[C@@H]1CCCN1)C(=O)N1CCC[C@H]1C(=O)N[C@@H](CCCCN)C(=O)O (H-PA[Hyp]KDAPK-OH) | inactive |
| C[C@H](NC(=O)[C@H](CCC(=O)O)NC(=O)[C@H](CCCCN)NC(=O)[C@@H]1C[C@@H](O)CN1C(=O)[C@H](C)NC(=O)[C@@H]1CCCN1)C(=O)N1CCC[C@H]1C(=O)N[C@@H](CCCCN)C(=O)O (H-PA[Hyp]KEAPK-OH) | inactive |
| C[C@H](NC(=O)[C@H](Cc1ccccc1)NC(=O)[C@H](CCCCN)NC(=O)[C@@H]1C[C@@H](O)CN1C(=O)[C@H](C)NC(=O)[C@@H]1CCCN1)C(=O)N1CCC[C@H]1C(=O)N[C@@H](CCCCN)C(=O)O (H-PA[Hyp]KFAPK-OH) | inactive |
| C[C@H](NC(=O)CNC(=O)[C@H](CCCCN)NC(=O)[C@@H]1C[C@@H](O)CN1C(=O)[C@H](C)NC(=O)[C@@H]1CCCN1)C(=O)N1CCC[C@H]1C(=O)N[C@@H](CCCCN)C(=O)O (H-PA[Hyp]KGAPK-OH) | inactive |
| C[C@H](NC(=O)[C@H](Cc1cnc[nH]1)NC(=O)[C@H](CCCCN)NC(=O)[C@@H]1C[C@@H](O)CN1C(=O)[C@H](C)NC(=O)[C@@H]1CCCN1)C(=O)N1CCC[C@H]1C(=O)N[C@@H](CCCCN)C(=O)O (H-PA[Hyp]KHAPK-OH) | inactive |
| CC[C@H](C)[C@H](NC(=O)[C@H](CCCCN)NC(=O)[C@@H]1C[C@@H](O)CN1C(=O)[C@H](C)NC(=O)[C@@H]1CCCN1)C(=O)N[C@@H](C)C(=O)N1CCC[C@H]1C(=O)N[C@@H](CCCCN)C(=O)O (H-PA[Hyp]KIAPK-OH) | inactive |
| C[C@H](NC(=O)[C@H](CCCCN)NC(=O)[C@H](CCCCN)NC(=O)[C@@H]1C[C@@H](O)CN1C(=O)[C@H](C)NC(=O)[C@@H]1CCCN1)C(=O)N1CCC[C@H]1C(=O)N[C@@H](CCCCN)C(=O)O (H-PA[Hyp]KKAPK-OH) | inactive |
